Assay results: patent US7723020B2, “Use of azetidinone compounds” (Schering Corporation, priority 1999, dated 2010)

How the values were obtained:
cholesterol absorption = assay: Acute in vivo cholesterol absorption model: inhibition of 14C-cholesterol absorption into plasma, intestinally cannulated rats; design: species or system Male Sprague-Dawley rats; settings: rat, relative to bile vehicle control
Experimental: Male Sprague-Dawley rats weighing 300-400 g were used. After an overnight fast, rats were anesthetized (Inactin, […] i.p.) for the duration of each study and were fitted with a cannula into the small intestine just below the pyloric valve. For the cannulation of the small intestine, a catheter (Surflo® i.v. catheter (18GX2″), Terumo Medical Corporation; Elkton, Md.) was inserted through the fundus of the stomach, advanced 1 cm beyond the pylorus, and ligated in place. Compounds were mixed in rat bile and delivered by bolus injection (1 mL) via the intestinal catheter into the small intestine.
One hour after the bile doses were delivered, three mL of an emulsion consisting of 2.23 mg/mL L-phosphatidylcholine and 11.8 mg/mL triolein in 19 mM sodium taurocholate (Sigma; St. Louis, Mo.) buffer (pH 6.4) containing 3 mg cholesterol and 1 mCi ^14C-cholesterol (NEN; Boston, Mass.) was delivered to each rat as a bolus via the intestinal cannula. Ninety minutes after the cholesterol emulsion was delivered, the rats were euthanized. Blood was collected and plasma was separated by centrifugation at 2000 rpm for 15 min at 4° C. Triplicate aliquots of plasma were analyzed ^14C radioactivity and inhibition of cholesterol absorption relative to bile vehicle control rats was determined.

[1] = molecular target: T1, Scavenger receptor, class B, type I (SR-BI) (Rattus norvegicus, UniProt P97943); assay: Expression cloning of rat intestinal epithelial cDNA library in BW5147 cells, stained with fluorescent compound, FACS; type: cell-based; settings: two clones from two independent cDNA expression libraries, FACS-positive BW5147 cells
T1 construct: expressed in transfected cells; host or cells: mouse cell line BW5147, infected with pMX retrovirus packaged in BOSC23
T1 sequence (P97943 1-509): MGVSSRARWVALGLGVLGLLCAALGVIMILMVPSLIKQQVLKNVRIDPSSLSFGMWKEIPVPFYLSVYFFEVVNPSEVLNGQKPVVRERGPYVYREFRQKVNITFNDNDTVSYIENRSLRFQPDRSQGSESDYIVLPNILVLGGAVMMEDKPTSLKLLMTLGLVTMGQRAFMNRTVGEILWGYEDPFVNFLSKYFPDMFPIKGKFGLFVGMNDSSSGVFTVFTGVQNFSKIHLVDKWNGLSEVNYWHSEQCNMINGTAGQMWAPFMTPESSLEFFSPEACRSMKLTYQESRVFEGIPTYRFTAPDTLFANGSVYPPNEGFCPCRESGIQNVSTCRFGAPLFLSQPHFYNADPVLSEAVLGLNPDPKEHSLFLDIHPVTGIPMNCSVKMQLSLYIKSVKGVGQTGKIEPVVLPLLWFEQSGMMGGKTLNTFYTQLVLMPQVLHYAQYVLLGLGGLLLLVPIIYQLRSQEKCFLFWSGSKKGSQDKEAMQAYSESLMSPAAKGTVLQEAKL
From the text: The small intestine was removed from male CRL: CD BR rats. Intestinal epithelial cells were isolated by the method of Weiser (Weiser, M., 1973, JBC 248, 2536-2541) and the mRNA extracted. Poly A mRNA was purified and double stranded cDNA synthesized. Adapter linkers were ligated followed by size selection (>2 Kb) of the cDNA. The selected fraction of cDNA was ligated into the retroviral expression plasmid pMX, subsequently transformed into bacteria and grown on selective agar at a clonal density of −30,000/plate. Each pool of bacterial clones was collected and plasmid DNA prepared.
Individual pools of cDNA library were transformed into the retroviral packaging cell line BOSC23 and the resulting viral particles, containing the cDNA library, were used to infect the mouse cell line BW5147. Following infection BW5147 cells were stained with compound 1C and analyzed by fluorescent activated cell sorting (FACS). Positive staining cells (−01%) were recovered and re-cultured. The process of recovering positive staining cells was repeated after expansion of the cell population in culture and following the second round of FACS analysis individual cells were isolated by limiting dilution.
Individual clonal populations of cells were subjected to PCR using retroviral vector specific oligonucleotide primers designed to flank the multiple cloning site in which the cDNA library was cloned. […]

Row | cellular receptor identified by expression cloning with the fluorescent compound [1] | Compound | % Inhibition of [14C]-Cholesterol Absorption into Plasma (cholesterol absorption; dose 56 μg/kg in rat bile via intestinal catheter) [%] | % Inhibition of [14C]-Cholesterol Absorption into Plasma (cholesterol absorption; dose 186 μg/kg in rat bile via intestinal catheter) [%] | % Inhibition of [14C]-Cholesterol Absorption into Plasma (cholesterol absorption; dose 30 μg/kg in rat bile via intestinal catheter) [%] | % Inhibition of [14C]-Cholesterol Absorption into Plasma (cholesterol absorption; dose 100 μg/kg in rat bile via intestinal catheter) [%]
1 | – | O=C(CCCCCNC(=O)c1ccc(-c2c3ccc(=O)cc-3oc3cc(O)ccc23)c(C(=O)O)c1)NCC#Cc1ccc(N2C(=O)[C@H](CC[C@H](O)c3ccc(F)cc3)[C@H]2c2ccc(O[C@@H]3O[C@H](C(=O)O)[C@@H](O)[C@H](O)[C@H]3O)cc2)cc1 [IB] | 79 | 88 | – | –
2 | identified as the cellular receptor | [1-O-[4-[1-[4-[3-[[3-[2-[(3,5-DIMETHYL-1H-PYRROL-2-YL-.KAPPA.N)METHYLENE]-2H-PYRROL-5-YL-.KAPPA.N]-1-OXOPROPYL]AMINO]-1-PROPYNYL]PHENYL]-3(R)-[3(S)-HYDROXY-3-(4-FLUOROPHENYL)PROPYL]-2-OXO-4(S)-AZETIDINYL]PHENYL]-BETA-D-GLUCURONATO]DIFLUOROBORATE, HYDROGEN [IC] | – | – | 58 | 80
